These results are taken from PMC11617653, “Macrocyclic Inhibitors Targeting the Prime Site of the Fibrinolytic Serine Protease Plasmin” (Chemmedchem, 2024).

What is called IC50 is the concentration that inhibits the measured activity by half.

Where “and” joins values, the source holds several entries; their conditions need not be identical. Identical values can stand only once. Like-named read-outs stand apart in the source and are kept apart here.

One data set deals with plasmin. The following applies: read-out: IC50, plasmin; Figure 1; cited from earlier work.
The target in a further data set is factor XIa (fXIa) (Homo sapiens, UniProt P03951). Kind of data set: Selectivity: inhibition of factor XIa. The note with it: for fXIa selectivity index K i(protease)/Ki(plasmin): in brackets; for Ki: read-out: fXIa K i. In kind it is biochemical. The procedure: (§1) For these three proteases a selectivity index (SI=K i(protease)/K i(plasmin)) was calculated, which is provided in brackets after the inhibition constants (Table 3).
Sequence of factor XIa (fXIa) (P03951 19-387): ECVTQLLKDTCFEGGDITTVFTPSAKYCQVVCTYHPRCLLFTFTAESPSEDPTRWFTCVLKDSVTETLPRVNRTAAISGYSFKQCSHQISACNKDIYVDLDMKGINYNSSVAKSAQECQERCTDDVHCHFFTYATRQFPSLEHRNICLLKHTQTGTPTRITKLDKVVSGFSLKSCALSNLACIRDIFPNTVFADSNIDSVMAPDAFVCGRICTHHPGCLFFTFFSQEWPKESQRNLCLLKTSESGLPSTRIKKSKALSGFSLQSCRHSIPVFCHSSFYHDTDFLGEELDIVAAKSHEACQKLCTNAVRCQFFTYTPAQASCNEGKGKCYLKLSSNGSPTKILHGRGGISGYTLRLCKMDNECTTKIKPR
Sequence of factor XIa (fXIa) (P03951 388-625): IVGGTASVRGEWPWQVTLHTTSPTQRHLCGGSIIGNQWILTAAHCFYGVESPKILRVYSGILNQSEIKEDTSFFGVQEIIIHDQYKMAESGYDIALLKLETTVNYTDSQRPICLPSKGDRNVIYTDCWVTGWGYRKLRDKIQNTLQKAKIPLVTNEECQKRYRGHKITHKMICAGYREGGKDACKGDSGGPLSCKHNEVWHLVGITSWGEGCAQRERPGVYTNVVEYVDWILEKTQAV
(§2) The measurements with the related trypsin‐like serine proteases trypsin, plasma kallikrein, factor XIa, thrombin, activated protein Ca and factor Xa used in selectivity studies were performed as described previously.[11, 12]

The target of data set [1] is activated protein C (aPC) (Homo sapiens, UniProt P04070). Kind of data set: Selectivity: inhibition of activated protein C. The note with it: deduced from pre-assays with only three inhibitor concentrations; read-out: aPC K i. The format is biochemical. On the procedure:
as §1, §2

A further data set deals with T1, human plasmin (Homo sapiens, UniProt P00747).
T1 construct: purchased Calbiochem
T1 sequence (P00747 581-810): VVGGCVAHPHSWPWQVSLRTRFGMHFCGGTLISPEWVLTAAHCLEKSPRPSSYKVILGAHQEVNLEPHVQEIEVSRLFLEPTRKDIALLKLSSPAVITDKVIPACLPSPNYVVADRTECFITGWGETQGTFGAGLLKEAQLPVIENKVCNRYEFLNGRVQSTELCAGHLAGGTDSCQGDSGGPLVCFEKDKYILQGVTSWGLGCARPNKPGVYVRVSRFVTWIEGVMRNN
T1 sequence (P00747 97-580): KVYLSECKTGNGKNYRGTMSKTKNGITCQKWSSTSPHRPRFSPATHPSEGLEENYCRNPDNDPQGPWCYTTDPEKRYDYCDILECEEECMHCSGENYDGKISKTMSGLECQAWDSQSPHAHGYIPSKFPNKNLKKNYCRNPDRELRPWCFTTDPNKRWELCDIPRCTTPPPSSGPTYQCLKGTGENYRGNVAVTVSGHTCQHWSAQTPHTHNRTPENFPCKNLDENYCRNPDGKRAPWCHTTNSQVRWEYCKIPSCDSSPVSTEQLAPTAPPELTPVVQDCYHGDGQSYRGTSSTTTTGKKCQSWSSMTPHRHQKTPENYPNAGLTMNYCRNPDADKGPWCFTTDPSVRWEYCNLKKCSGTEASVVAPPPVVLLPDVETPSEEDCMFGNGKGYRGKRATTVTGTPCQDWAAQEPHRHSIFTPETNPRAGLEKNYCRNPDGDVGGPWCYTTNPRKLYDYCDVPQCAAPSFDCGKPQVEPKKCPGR
Kind of data set: Inhibition of human plasmin, fluorogenic substrate Mes-DArg-Phe-Arg-AMC. The format is biochemical. On the procedure:
All inhibitors prepared in this study act as reversible competitive plasmin inhibitors, their K i values were calculated by fitting the steady‐state velocities as function of the inhibitor concentrations using equation 1. 4‐aminophenylalanine (Phe(4‐NH2)) was incorporated as P1’ residue in the first inhibitor series, which enabled a macrocyclization via amide bond formation from its side chain amino group using various linker segments and P2’ residues (Table 1). […] The improved potency of SFTI‐1 analogues with basic P2’ residues[9] stimulated the incorporation of Arg in that position leading to inhibitor 4 with a slightly stronger inhibitory potency. A significant improvement could be achieved when using 3‐ or 4‐aminophenylacetic acid as P2’ group in combination with elongated linker residues (5‐6). […] However, inhibitor 9 is a twofold stronger plasmin inhibitor compared to its analogue 8.
For these inhibitors the steady‐state velocities were calculated by fitting the progress curves to equation 2 providing an additional apparent first‐order rate constant k obs for each curve. The steady‐state rates were used for K i determination with equation 1 and the k obs values for the calculation of the association rate constants k on according to equation 3. The dissociation rate constant k off was calculated from the known K i and k on values using equation 4. The enzyme kinetic evaluation of slow‐binding inhibitors of plasmin has already been described in detail in our two previous publications.[11, 12]
All measurements were conducted as triplicates in black 96‐well FluoroNunc MaxiSorp plates (Nunc, Langenselbold, Germany) and suitable fluorogenic substrates at room temperature. […] Each well contained a total volume of 180 μL consisting of 100 μL of inhibitor dissolved in buffer, 40 μL of the substrate Mes‐DArg‐Phe‐Arg‐AMC[11] (100 μM in assay, KM=16.1 μM) dissolved in water and 40 μL of plasmin solution (0.27 nM in assay). The following equations were used for the enzyme kinetic analysis as described in the results section and in our previous publications.[11, 12] (1) [drawing 71] (2) [drawing 72] (3) [drawing 73] (4) [drawing 74]

In another data set the target is thrombin (Homo sapiens, UniProt P00734). Kind of data set: Selectivity: inhibition of thrombin. The note with it: deduced from pre-assays with only three inhibitor concentrations; read-out: Thrombin K i. The format is biochemical. On the procedure: as §1, §2
Another data set deals with factor Xa (fXa) (Homo sapiens, UniProt P00742). Kind of data set: Selectivity: inhibition of factor Xa. The note with it: deduced from pre-assays with only three inhibitor concentrations; read-out: fXa K i. In kind it is biochemical. The procedure:
as §1, §2

The next data set addresses plasma kallikrein (PK) (Homo sapiens, UniProt P03952). Kind of data set: Selectivity: inhibition of plasma kallikrein. In kind it is biochemical. The note with it: for PK selectivity index K i(protease)/Ki(plasmin): in brackets; for Ki: read-out: PK K i. The procedure:
as §1, §2

Data set [2] can be described thus: Water solubility (qualitative comparison). The following applies: compared to inhibitor 28.
The next data set has as its target PK. The following applies: no reference given; read-out: K i, PK; cited from earlier work.
Where [3] appears, read: K i (nM), inhibition of plasmin, series two, substituted Bpa in P1', and acyclic analogues, steady-state velocities, equation 1.
Setting [4] is: Plasmin K i, Table 3 selectivity.

Sequence of factor Xa (fXa) (P00742 41-179): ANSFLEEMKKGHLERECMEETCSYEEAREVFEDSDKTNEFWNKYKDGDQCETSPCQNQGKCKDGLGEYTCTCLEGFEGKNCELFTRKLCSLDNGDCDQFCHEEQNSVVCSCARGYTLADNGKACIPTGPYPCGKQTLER
Sequence of factor Xa (fXa) (P00742 235-488): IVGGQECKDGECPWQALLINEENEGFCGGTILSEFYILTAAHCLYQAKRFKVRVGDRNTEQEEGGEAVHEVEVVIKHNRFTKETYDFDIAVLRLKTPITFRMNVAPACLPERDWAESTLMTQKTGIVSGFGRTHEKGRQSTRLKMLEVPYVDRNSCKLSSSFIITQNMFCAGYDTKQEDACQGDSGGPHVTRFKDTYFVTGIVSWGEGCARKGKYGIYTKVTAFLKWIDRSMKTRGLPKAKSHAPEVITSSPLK
Sequence of activated protein C (aPC) (P04070 43-197): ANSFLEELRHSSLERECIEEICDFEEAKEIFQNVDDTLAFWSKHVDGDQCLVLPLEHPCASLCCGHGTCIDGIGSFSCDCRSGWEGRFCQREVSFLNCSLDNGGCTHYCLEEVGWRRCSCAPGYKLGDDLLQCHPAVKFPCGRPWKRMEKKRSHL
Sequence of activated protein C (aPC) (P04070 212-461): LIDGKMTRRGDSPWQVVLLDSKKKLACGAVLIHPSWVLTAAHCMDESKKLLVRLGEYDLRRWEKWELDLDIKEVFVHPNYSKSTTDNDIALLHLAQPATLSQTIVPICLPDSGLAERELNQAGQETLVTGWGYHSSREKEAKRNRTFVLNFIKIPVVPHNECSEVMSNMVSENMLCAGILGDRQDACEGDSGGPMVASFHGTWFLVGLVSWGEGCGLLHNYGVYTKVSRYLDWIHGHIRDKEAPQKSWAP
Sequence of plasma kallikrein (PK) (P03952 391-638): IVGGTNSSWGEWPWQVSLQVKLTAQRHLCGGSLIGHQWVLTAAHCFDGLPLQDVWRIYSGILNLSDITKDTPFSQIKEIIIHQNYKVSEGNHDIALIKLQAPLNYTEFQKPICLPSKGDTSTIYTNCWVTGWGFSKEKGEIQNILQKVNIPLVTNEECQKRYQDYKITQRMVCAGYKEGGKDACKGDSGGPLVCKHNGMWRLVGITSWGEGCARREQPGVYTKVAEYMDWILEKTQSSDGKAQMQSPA
Sequence of plasma kallikrein (PK) (P03952 20-390): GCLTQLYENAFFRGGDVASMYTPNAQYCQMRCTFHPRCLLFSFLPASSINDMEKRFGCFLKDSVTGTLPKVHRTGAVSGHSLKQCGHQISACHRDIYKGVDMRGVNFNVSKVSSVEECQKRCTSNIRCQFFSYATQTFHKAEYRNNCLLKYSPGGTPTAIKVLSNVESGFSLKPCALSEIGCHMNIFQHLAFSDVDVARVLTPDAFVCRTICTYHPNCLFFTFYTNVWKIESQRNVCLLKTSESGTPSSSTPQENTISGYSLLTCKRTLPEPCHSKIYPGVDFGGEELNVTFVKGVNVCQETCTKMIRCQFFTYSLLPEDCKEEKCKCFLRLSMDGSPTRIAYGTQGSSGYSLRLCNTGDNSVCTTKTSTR

Take `CCCCCCCCNC(=O)[C@H](Cc1ccc(OCc2ccncc2)cc1)NC(=O)[C@H]1CC[C@H](CN)CC1` [YO-2]: the IC50 in the data set with plasmin is 240 nM.
In the case of `Cc1ccc2cc1NC(=O)CNC(=O)CCCNC(=O)Cc1ccc(cc1)NC(=O)[C@@H](NC(=O)[C@H]1CC[C@H](CN)CC1)Cc1ccc-2cc1` [inhibitor 28], at factor XIa (fXIa), the “fXIa selectivity index K i(protease)/Ki(plasmin)” value is on record as 49. The Ki at factor XIa (fXIa) was 41 ± 3.2 nM; in data set [1], greater than 35000 nM; on human plasmin (setting [3]) it was 0.83 nM and 0.832 nM; on human plasmin (setting [4]) it was 0.832 nM; on thrombin, greater than 60000 nM; at factor Xa (fXa), greater than 8000 nM. For the same compound, at plasma kallikrein (PK), the Ki amounted to 31 ± 14 nM. The “fold stronger plasmin inhibition than acyclic analogues 46 and 47” value on human plasmin is given as “approximately 75 fold”. The “PK selectivity index K i(protease)/Ki(plasmin)” value on plasma kallikrein (PK) was 38.
On to `Cc1ccc2cc1NC(=O)C(Cc1ccccc1)NC(=O)CCCNC(=O)Cc1ccc(cc1)NC(=O)C(NC(=O)C1CCC(CN)CC1)Cc1ccc-2cc1` (stereo not drawn) [inhibitor 30], for which the “fXIa selectivity index K i(protease)/Ki(plasmin)” value on factor XIa (fXIa) was 23. In addition, the Ki on factor XIa (fXIa) is 47 ± 2 nM; in data set [1] it was greater than 5000 nM; on human plasmin (setting [3]) it was 2.08 ± 0.05 nM; at human plasmin (setting [4]), 2.08 nM; at thrombin it was greater than 30000 nM; at factor Xa (fXa), greater than 80000 nM. The Ki at plasma kallikrein (PK) was 60 ± 12 nM. Further, the “PK selectivity index K i(protease)/Ki(plasmin)” value on plasma kallikrein (PK) was determined as 30.
For `Cc1ccc2cc1NC(=O)C(CCc1ccccc1)NC(=O)CCCNC(=O)Cc1ccc(cc1)NC(=O)C(NC(=O)C1CCC(CN)CC1)Cc1ccc-2cc1` (stereo not drawn) [inhibitor 31], at factor XIa (fXIa), the “fXIa selectivity index K i(protease)/Ki(plasmin)” value came to 117. The Ki at factor XIa (fXIa) is 88 ± 23 nM; in data set [1], greater than 10000 nM; at human plasmin (setting [3]), 0.831 ± 0.154 nM; on human plasmin (setting [4]) it was 0.831 nM; on thrombin it was greater than 75000 nM; on factor Xa (fXa) it was greater than 80000 nM. The Ki on plasma kallikrein (PK) stood at 67 ± 4 nM. Also, in data set [2], the water solubility result was “reduced water solubility”. Besides, the “PK selectivity index K i(protease)/Ki(plasmin)” value at plasma kallikrein (PK) came to 89.
Take `NC[C@H]1CC[C@H](C(=O)N[C@H]2Cc3ccc(cc3)-c3ccc(C(=O)Nc4ccccc4)c(c3)NC(=O)CNC(=O)CCCNC(=O)Cc3ccc(cc3)NC2=O)CC1` [inhibitor 32]: the “fXIa selectivity index K i(protease)/Ki(plasmin)” value at factor XIa (fXIa) was 4. For the same compound, the Ki at factor XIa (fXIa) is 5.3 ± 1.4 nM; in data set [1], greater than 20000 nM; at human plasmin (setting [3]) it was 1.46 ± 0.07 nM; at human plasmin (setting [4]), 1.46 nM; at thrombin it was greater than 25000 nM; on factor Xa (fXa), greater than 5000 nM. Also, the Ki on plasma kallikrein (PK) was 15 ± 1 nM. At plasma kallikrein (PK), the “PK selectivity index K i(protease)/Ki(plasmin)” value is 11.
In the case of `CC(C)NC(=O)c1ccc2cc1NC(=O)CNC(=O)CCCNC(=O)Cc1ccc(cc1)NC(=O)C(NC(=O)C1CCC(CN)CC1)Cc1ccc-2cc1` [inhibitor 33, (S)‐4‐((1r,4S)‐4‐(aminomethyl)cyclohexane‐1‐carboxamido)‐N‐isopropyl‐5,9,14,17‐tetraoxo‐6,10,15,18‐tetraaza‐1(1,3),2,7(1,4)‐tribenzenacyclooctadecaphane‐14‐carboxamide], the “fXIa selectivity index K i(protease)/Ki(plasmin)” value on factor XIa (fXIa) came to 18. In addition, the Ki is 8.1 ± 1.6 nM at factor XIa (fXIa); greater than 35000 nM in data set [1]; 0.52 nM and 0.524 nM at human plasmin (setting [3]); 0.524 nM at human plasmin (setting [4]); greater than 45000 nM at thrombin; greater than 10000 nM at factor Xa (fXa). For the same compound, on plasma kallikrein (PK), the Ki amounted to 9.4 ± 2.1 nM. For the same compound, the “PK selectivity index K i(protease)/Ki(plasmin)” value on plasma kallikrein (PK) was determined as 21.
For the compound `Cc1ccc2cc1NC(=O)[C@@H](N)CCCCNC(=O)Cc1ccc(cc1)NC(=O)[C@@H](NC(=O)[C@H]1CC[C@H](CN)CC1)Cc1ccc-2cc1` [inhibitor 35], at human plasmin (setting [3]), the Ki amounted to 29.8 ± 1.6 nM.
Still for that read-out and setting: the value for `Cc1ccc2cc1NC(=O)CCCN1CCN(CC1)C(=O)Cc1ccc(cc1)NC(=O)[C@@H](NC(=O)[C@H]1CC[C@H](CN)CC1)Cc1ccc-2cc1` [inhibitor 36] was 112 ± 6 nM.
The same measure, in the same setting: the result for `Cc1ccc2cc1NC(=O)CCN1CCN(CC1)C(=O)Cc1ccc(cc1)NC(=O)[C@@H](NC(=O)[C@H]1CC[C@H](CN)CC1)Cc1ccc-2cc1` [inhibitor 37] reads 13 ± 0.2 nM.
Same read-out and setting: the value for `Cc1ccc2cc1NC(=O)CN1CCN(CC1)C(=O)Cc1ccc(cc1)NC(=O)[C@@H](NC(=O)[C@H]1CC[C@H](CN)CC1)Cc1ccc-2cc1` [inhibitor 38] was 35.7 ± 1.1 nM; that for `Cc1ccc2cc1NC(=O)CNC(=O)CCCCNC(=O)Cc1cccc(c1)NC(=O)[C@@H](NC(=O)[C@H]1CC[C@H](CN)CC1)Cc1ccc-2cc1` [inhibitor 39] was 26.9 ± 0.5 nM.
Take `Cc1ccc2cc1NC(=O)CNC(=O)CCCNC(=O)Cc1cccc(c1)NC(=O)[C@@H](NC(=O)[C@H]1CC[C@H](CN)CC1)Cc1ccc-2cc1` [inhibitor 40]: the “fXIa selectivity index K i(protease)/Ki(plasmin)” value on factor XIa (fXIa) is listed as 13. In addition, the Ki at factor XIa (fXIa) is 110 ± 10 nM; in data set [1], greater than 40000 nM; at human plasmin (setting [3]) it was 9.47 ± 0.75 nM; at human plasmin (setting [4]), 9.47 nM; at thrombin, greater than 80000 nM; at factor Xa (fXa) it was greater than 9000 nM. At plasma kallikrein (PK), the Ki worked out at 120 ± 10 nM. For the same compound, at plasma kallikrein (PK), the “PK selectivity index K i(protease)/Ki(plasmin)” value is reported as 14.
Turning to `Cc1ccc2cc1NC(=O)CNC(=O)CCNC(=O)Cc1cccc(c1)NC(=O)[C@@H](NC(=O)[C@H]1CC[C@H](CN)CC1)Cc1ccc-2cc1` [inhibitor 41], the Ki at human plasmin (setting [3]) came out at 20.6 ± 0.5 nM.
Still for that read-out and setting: the value for `Cc1ccc2cc1NC(=O)CNC(=O)CCCNC(=O)Cc1cccc(c1)CNC(=O)[C@@H](NC(=O)[C@H]1CC[C@H](CN)CC1)Cc1ccc-2cc1` [inhibitor 42] was 284 ± 24 nM.
As for `Cc1ccc2cc1NC(=O)CNC(=O)CCCCNC(=O)c1ccc3cc(ccc3c1)NC(=O)[C@@H](NC(=O)[C@H]1CC[C@H](CN)CC1)Cc1ccc-2cc1` [inhibitor 43], the Ki on human plasmin (setting [3]) is 5.14 ± 0.27 nM.
Regarding `Cc1ccc2cc1NC(=O)CNC(=O)CCCNC(=O)c1ccc3cc(ccc3c1)NC(=O)[C@@H](NC(=O)[C@H]1CC[C@H](CN)CC1)Cc1ccc-2cc1` [inhibitor 44], on human plasmin (read-out: K i (nM), inhibition of plasmin, series two, substituted Bpa in P1', and acyclic analogues, steady-state velocities, equation 1), the Ki was found to be 10.3 ± 0.2 nM.
Regarding `Cc1ccc2cc1NC(=O)CNC(=O)CCNC(=O)c1ccc3cc(ccc3c1)NC(=O)[C@@H](NC(=O)[C@H]1CC[C@H](CN)CC1)Cc1ccc-2cc1` [inhibitor 45], at factor XIa (fXIa), the “fXIa selectivity index K i(protease)/Ki(plasmin)” value worked out at 137. The Ki on factor XIa (fXIa) was 320 ± 50 nM; in data set [1] it was greater than 4000 nM; at human plasmin (setting [3]), 2.53 ± 0.23 nM; at human plasmin (setting [4]) it was 2.53 nM; on thrombin, greater than 40000 nM; on factor Xa (fXa) it was greater than 40000 nM. The Ki at plasma kallikrein (PK) was found to be 156 ± 35 nM. Besides, the “PK selectivity index K i(protease)/Ki(plasmin)” value on plasma kallikrein (PK) came to 62.
For `Cc1ccc(-c2ccc(C[C@H](NC(=O)[C@H]3CC[C@H](CN)CC3)C(=O)Nc3ccc(CC(=O)NCCCC(=O)NCC(=O)O)cc3)cc2)cc1N` [inhibitor 46], the Ki on human plasmin (setting [3]) amounted to 86.1 ± 6.6 nM.
The same measure, in the same setting: the value for `Cc1ccc(-c2ccc(C[C@H](NC(=O)[C@H]3CC[C@H](CN)CC3)C(=O)Nc3ccc(CC(=O)NCCCC(=O)NCC(N)=O)cc3)cc2)cc1N` [inhibitor 47] was 65.1 ± 1.7 nM.
As for aprotinin, on PK, the Ki was 30 nM.
